These results are taken from PMC9333455, “Drug repurposing based on a quantum-inspired method versus classical fingerprinting uncovers potential antivirals against SARS-CoV-2” (PLoS Computational Biology, 2022).

This experiment deals with SARS-CoV-2 variants Alpha (B.1.1.7), Beta (B.1.351), Delta (B.617.2). The format is cell-based. The settings on record: Vero E6 and Caco-2 cells, 48 h.

Structures are written as SMILES.

Take `COc1nc(N)nc2c1ncn2[C@@H]1O[C@H](COP(=O)(N[C@@H](C)C(=O)OCC(C)(C)C)Oc2cccc3ccccc23)[C@@H](O)[C@@]1(C)O` (stereo partly shown) [BMS-986094]: the “replication of panel of SARS-CoV-2 variant isolates (in words)” value is listed as “suppressed the replication”.
